Experiments:
panel of 442 kinases [1] = molecular target: T1, panel of 442 kinases (Homo sapiens, UniProt Q6PHR2); type: binding; details: kinase ULK3; compound concentration 10 µM
T1 construct: purchased KINOMEscan
T1 sequence (Q6PHR2 1-472): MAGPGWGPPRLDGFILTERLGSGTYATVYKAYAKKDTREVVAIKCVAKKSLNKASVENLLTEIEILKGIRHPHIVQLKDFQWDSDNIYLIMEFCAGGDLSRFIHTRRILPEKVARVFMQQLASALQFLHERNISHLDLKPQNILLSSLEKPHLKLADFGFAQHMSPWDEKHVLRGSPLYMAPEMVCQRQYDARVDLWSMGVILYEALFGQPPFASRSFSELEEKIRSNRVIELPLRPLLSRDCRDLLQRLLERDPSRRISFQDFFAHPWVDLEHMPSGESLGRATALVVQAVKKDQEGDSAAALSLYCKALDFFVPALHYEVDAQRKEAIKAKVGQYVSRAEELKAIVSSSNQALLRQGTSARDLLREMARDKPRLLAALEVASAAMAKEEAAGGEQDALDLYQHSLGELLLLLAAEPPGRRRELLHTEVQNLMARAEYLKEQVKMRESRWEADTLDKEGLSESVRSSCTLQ
Excerpt: (§1) We assessed the selectivity of members of this scaffold using the KINOMEscan methodology across a near comprehensive panel of 442 kinases [[18,27]].

panel of 442 kinases [2] = molecular target: T2, panel of 442 kinases (Homo sapiens, UniProt P36888); type: binding; details: Compound Concentration 10 µM
T2 construct: purchased KINOMEscan
T2 sequence (P36888 27-993): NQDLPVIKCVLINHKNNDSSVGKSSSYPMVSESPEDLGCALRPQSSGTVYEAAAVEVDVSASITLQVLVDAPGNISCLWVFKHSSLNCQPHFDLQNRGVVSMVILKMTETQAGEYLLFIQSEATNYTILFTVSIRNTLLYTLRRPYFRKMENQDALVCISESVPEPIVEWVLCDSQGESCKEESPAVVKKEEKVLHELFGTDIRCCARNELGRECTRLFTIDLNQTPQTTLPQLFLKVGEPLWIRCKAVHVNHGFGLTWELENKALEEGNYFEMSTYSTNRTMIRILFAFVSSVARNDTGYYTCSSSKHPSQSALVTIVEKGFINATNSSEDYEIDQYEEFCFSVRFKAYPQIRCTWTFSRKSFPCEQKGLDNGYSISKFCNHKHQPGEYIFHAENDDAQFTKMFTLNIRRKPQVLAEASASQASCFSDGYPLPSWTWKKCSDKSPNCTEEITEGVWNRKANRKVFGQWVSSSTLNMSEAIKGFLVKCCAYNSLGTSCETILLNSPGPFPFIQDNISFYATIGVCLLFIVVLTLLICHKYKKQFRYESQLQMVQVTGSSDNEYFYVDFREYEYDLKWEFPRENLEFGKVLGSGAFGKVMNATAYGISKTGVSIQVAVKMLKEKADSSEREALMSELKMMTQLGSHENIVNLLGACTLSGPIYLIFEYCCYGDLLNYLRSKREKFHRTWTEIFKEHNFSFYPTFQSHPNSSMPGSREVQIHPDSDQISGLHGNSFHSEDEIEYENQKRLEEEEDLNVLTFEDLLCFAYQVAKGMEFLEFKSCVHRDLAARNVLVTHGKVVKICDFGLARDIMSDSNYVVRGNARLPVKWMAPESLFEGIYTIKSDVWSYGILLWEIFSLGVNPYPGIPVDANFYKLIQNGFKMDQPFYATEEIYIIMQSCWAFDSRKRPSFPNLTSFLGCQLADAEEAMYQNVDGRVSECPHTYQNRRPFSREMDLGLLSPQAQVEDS
Excerpt: as §1

Row | Structure (SMILES) | % Ctrl, ULK3 (panel of 442 kinases [1]) [% Ctrl] | KINOMEscan: FLT3 (panel of 442 kinases [2])
1 | COc1cc(C(=O)N2CCC(N3CCN(C)CC3)CC2)ccc1Nc1ncc2c(n1)N1CCc3cccc(c31)C(=O)N2C [Compound 24] | 100 | –
2 | CCOc1cc(C(=O)N2CCC(N3CCN(C)CC3)CC2)ccc1Nc1ncc2c(n1)N(C1CCCC1)c1ccccc1C(=O)N2C [Compound 26] | 100 | 100
3 | COc1cc(C(=O)N2CCC(N3CCN(C)CC3)CC2)ccc1Nc1ncc2c(n1)N(C1CCCC1)c1ccccc1C(=O)N2C [Compound 25, 11-cyclopentyl-2-((2-methoxy-4-(4-(4-methylpiperazin-1-yl)piperidine-1-carbonyl)phenyl)amino)-5-methyl-5H-benzo[e]pyrimido[5,4-b][1,4]diazepin-6(11H)-one] | 100 | 100
4 | COc1cc(C(=O)N2CCC(N3CCN(C)CC3)CC2)ccc1Nc1ncc2c(n1)N(C)c1ccccc1C(=O)N2C [15 (LRRK2-IN-1)] | 100 | 100
